Consider two molecules from ChEMBL document CHEMBL3046001, “4-Thiazolidinone and 1-thia-3,4,9-triaza fluorene conjugates: synthesis, characterization and antimicrobial screening” (2013).

One may read the MIC as the least concentration at which growth counts as inhibited.

Converted amounts (≈) assume the structure as drawn.

Common to all, as to assay type: functional
Assay [1] deals with Bacillus subtilis. The experiment in a line: Antibacterial activity against Bacillus subtilis MTCC 441 assessed as growth inhibition at 10 ug/mL after 48 hr by agar diffusion method. As to conditions: MTCC 441, 48 h, read-out: DIZ.
For another assay, the system named is Escherichia coli. The experiment in a line: Antibacterial activity against Escherichia coli MTCC 1573 assessed as growth inhibition at 10 ug/mL after 48 hr by agar diffusion method. The conditions noted are these: MTCC 1573, 48 h, read-out: DIZ. For orientation: Agar diffusion results depend on both activity and mobility in agar.
Assay [2] deals with Pseudomonas aeruginosa. The experiment in a line: Antibacterial activity against Pseudomonas aeruginosa MTCC 424 assessed as growth inhibition at 10 ug/mL after 48 hr by agar diffusion method. The conditions noted are these: MTCC 424, 48 h, read-out: DIZ.
For assay [3], the system named is Pseudomonas fluorescens. The experiment in a line: Antibacterial activity against Pseudomonas fluorescens MTCC 2421 assessed as growth inhibition at 10 ug/mL after 48 hr by agar diffusion method. The conditions noted are these: MTCC 2421, 48 h, read-out: DIZ.
In assay [4] the test system is Staphylococcus aureus. The experiment in a line: Antibacterial activity against Staphylococcus aureus MTCC 1430 assessed as growth inhibition after 24 hr by tube dilution method. The conditions noted are these: MTCC 1430, 24 h.
Assay [5] concerns Bacillus pumilus. The assay is described as follows: Antibacterial activity against Bacillus pumilus MTCC 1456 assessed as growth inhibition at 10 ug/mL after 48 hr by agar diffusion method. The conditions noted are these: MTCC 1456, 48 h, read-out: DIZ.
The subject of assay [6] is Staphylococcus aureus. The assay is described as follows: Antibacterial activity against Staphylococcus aureus MTCC 1430 assessed as growth inhibition at 10 ug/mL after 48 hr by agar diffusion method. The conditions noted are these: MTCC 1430, 48 h, read-out: DIZ.
In assay [7] the test system is Pseudomonas aeruginosa. The experiment in a line: Antibacterial activity against Pseudomonas aeruginosa MTCC 424 assessed as growth inhibition after 24 hr by tube dilution method. As to conditions: MTCC 424, 24 h.
Assay [8] deals with Pseudomonas fluorescens. The experiment in a line: Antibacterial activity against Pseudomonas fluorescens MTCC 2421 assessed as growth inhibition after 24 hr by tube dilution method. As to conditions: MTCC 2421, 24 h.
Assay [9] relates to Micrococcus luteus. The assay is described as follows: Antibacterial activity against Micrococcus luteus MTCC 1538 assessed as growth inhibition at 10 ug/mL after 48 hr by agar diffusion method. As to conditions: MTCC 1538, 48 h, read-out: DIZ.
For assay [10], the system named is Bacillus subtilis. The assay is described as follows: Antibacterial activity against Bacillus subtilis MTCC 441 assessed as growth inhibition after 24 hr by tube dilution method. The conditions noted are these: MTCC 441, 24 h.
In assay [11] the test system is Micrococcus luteus. The assay is described as follows: Antibacterial activity against Micrococcus luteus MTCC 1538 assessed as growth inhibition after 24 hr by tube dilution method. The conditions noted are these: MTCC 1538, 24 h.
Assay [12] deals with Bacillus pumilus. The experiment in a line: Antibacterial activity against Bacillus pumilus MTCC 1456 assessed as growth inhibition after 24 hr by tube dilution method. The conditions noted are these: MTCC 1456, 24 h.
Assay [13] relates to Penicillium chrysogenum. The experiment in a line: Antifungal activity against Penicillium chrysogenum MTCC 161 assessed as growth inhibition after 24 hr by tube dilution method. The conditions noted are these: MTCC 161, 24 h.
Assay [14] concerns Aspergillus niger. The assay is described as follows: Antifungal activity against Aspergillus niger MTCC 2546 assessed as growth inhibition at 10 ug/mL after 48 hr by agar diffusion method. As to conditions: MTCC 2546, 48 h, read-out: DIZ.
Assay [15] concerns Aspergillus niger. The assay is described as follows: Antifungal activity against Aspergillus niger MTCC 2546 assessed as growth inhibition after 24 hr by tube dilution method. The conditions noted are these: MTCC 2546, 24 h.
The subject of assay [16] is Penicillium chrysogenum. The experiment in a line: Antifungal activity against Penicillium chrysogenum MTCC 161 assessed as growth inhibition at 10 ug/mL after 48 hr by agar diffusion method. As to conditions: MTCC 161, 48 h, read-out: DIZ.

As to `CCn1cc(C(=O)O)c(=O)c2cc(F)c(N3CCNCC3)cc21` [NORFLOXACIN], the zone of inhibition at 10 µg/mL with Bacillus subtilis [1] was 25 mm; in the assay with Escherichia coli it was 25 mm; in the assay with Pseudomonas aeruginosa [2], 26 mm; with Pseudomonas fluorescens [3], 27 mm; in the assay with Bacillus pumilus [5], 30 mm; in the assay on Staphylococcus aureus [6] it was 22 mm. Also, in the assay with Micrococcus luteus [9], the zone of inhibition at 10 µg/mL stood at 24 mm. In addition, the MIC in the assay on Staphylococcus aureus [4] is 5 µg/mL (≈ 15.7 µM); with Pseudomonas aeruginosa [7], 2.5 µg/mL (≈ 7.83 µM); in the assay on Pseudomonas fluorescens [8], 2.5 µg/mL (≈ 7.83 µM); with Bacillus subtilis [10], 2.5 µg/mL (≈ 7.83 µM); in the assay on Micrococcus luteus [11], 2.5 µg/mL (≈ 7.83 µM); in the assay on Bacillus pumilus [12] it was 1.25 µg/mL (≈ 3.91 µM).
For the molecule `OC(Cn1cncn1)(Cn1cncn1)c1ccc(F)cc1F` [FLUCONAZOLE], the MIC in the assay on Penicillium chrysogenum [13] was determined as 1.25 µg/mL (≈ 4.08 µM); in the assay on Aspergillus niger [15], 2.5 µg/mL (≈ 8.16 µM). Further, the zone of inhibition at 10 µg/mL in the assay on Aspergillus niger [14] is 22 mm; with Penicillium chrysogenum [16], 23 mm.
